Patent US10765716B2, “Obesity treatment” (priority 2017, dated 2020)

Key:
Assay type in all cases: in vivo, male Wistar rats
[1] = tested on: high-fat diet induced obese rats; experiment: Therapeutic study: high-fat diet induced obese rats treated for 12 weeks (food intake, body weight, lipid profile, fasting blood glucose, leptin, insulin, histology); details: for average food intake (in words): therapeutic study 12 weeks, Orlistat (TO), Sibutramine (TS), extract (TC1 and TC2)
Method: (§1) The crude extracts of C. latifolia were suspended in distilled water before its administration to the rat models. Orlistat and Sibutramine were used as standard drugs at doses of 100 mg/kg, and 5 mg/kg, respectively (dissolved in distilled water).
(§2) Thirty male Wistar rats (210-220 g) were obtained from the animal house facility of Dr. Panjwani Center for Molecular Medicine and Drug Research (ICCBS). All animals were kept under standard conditions of temperature and humidity with a 12 h light/dark cycle, approved by the Ethical Committee of International Center for Chemical and Biological Sciences (Protocol number: 2013-0001). After one week of acclimation period, rats were randomly divided into […]. The control group was fed with normal diet (D12450B, Research Diets, USA), whereas the other groups were fed high-fat diet (D12451, Research Diets, USA) for a period of 16-week. After 10 weeks, biochemical parameters were evaluated regularly to establish whether the model has developed the symptoms of metabolic syndrome. […]
(§3) Body weights were recorded weekly throughout the experiment. The food intake was calculated by using following formula, as described by Ghezzi et al, 2012: […]
(§4) Blood glucose, serum insulin, total cholesterol, triglycerides, HDL, LDL, very low density lipoproteins […], urea, creatinine, aspartate aminotransferase […], alkaline phosphatase (ALP), serum glutamic pyruvic transaminase (SGPT), and direct and total bilirubin were estimated. Fasting blood glucose levels were measured using glucometer (AccuChek Performa, Australia). Fasting insulin levels were quantified using ultra sensitive rat insulin ELISA kit (Crystal Chem. Downers Grove, USA). Insulin sensitivity was evaluated using Homeostatic Model Assessment (HOMA). Serum total cholesterol, triglycerides, HDL, LDL, VLDL, urea, creatinine, AST, ALP, SGPT, and direct and total bilirubin were analyzed using automatic analyzer (Hitachi, Roche Diagnostics 902, Tokyo, Japan).

[2] = tested on: high-fat diet induced obese rats; experiment: Renal and liver toxicity assessment after 12 weeks of treatment period
Method: Whereas for therapeutic studies the animal groups were as follow: Group 1 (TA), Control; animals in this group received LFD, and distilled water Group 2 (TC), Pathological control; animals in this group received HFD, and distilled water. Groups 3 (TO), High fat diet induced obese animals in this group received standard drug Orlistat (100 mg/kg/day). Group 4 (TS): High fat diet induced obese animals in this group received standard drug Sibutramine (5 mg/kg/day), Group 5 (TC1): High fat diet induced obese animals in this group received C. latifolia extract (150 mg/kg/day). Group 6 (FC2) High fat diet induced obese animals in this group received C. latifolia extract (300 mg/kg/day). […]
as §4, with “Serum total cholesterol, triglycerides, HDL, LDL, VLDL, urea, creatinine, AST, ALP, SGPT, and direct and total bilirubin were analyzed using automatic analyzer (Hitachi, Roche Diagnostics 902, Tokyo, Japan).” left out

high fat diet rats = experiment: Preventive study: high fat diet rats given extract or standard drugs for 8 weeks (food intake, body weight, lipid profile, fasting blood glucose, liver histology); details: preventive study 8 weeks
Method: as §1, §2, §3, §4

| SMILES | average food intake (in words) [1] | Direct bilirubin ([2]; rat, in vivo, 100 mg/kg) [mg/dL] | FBG (fasting blood glucose) (high fat diet rats; 100 mg/kg (PO)) [mg/dL] | FBG (fasting blood glucose) ([1]; after 12 weeks of treatment, 5 mg/kg (TS)) [mg/dL] | Direct bilirubin ([2]; liver toxicity, after 12 weeks of treatment, 5 mg/kg (TS)) [mg/dL] | FBG (fasting blood glucose) (high fat diet rats; 5 mg/kg (PS)) [mg/dL] | Triglyceride (high fat diet rats; serum, 5 mg/kg (PS)) [mg/dL] |
| --- | --- | --- | --- | --- | --- | --- | --- |
| CCCCCCCCCCC[C@@H](C[C@@H]1OC(=O)[C@H]1CCCCCC)OC(=O)[C@H](CC(C)C)NC=O [Orlistat] | decrease | 0.06 ± 0.008 | 79 ± 1.04 | – | – | – | – |
| CC(C)CC(N(C)C)C1(c2ccc(Cl)cc2)CCC1 (centres unmarked) [Sibutramine] | decrease | – | – | 80 ± 0.12 | 0.03 ± 0.004 | 76 ± 2.12 | 51 ± 0.19 |
